pIC50: −log10 of the molar value.

Holding throughout (format): biochemical
One assay addresses JAK1 (Homo sapiens, UniProt P23458). Nature of the assay: JAK kinase activity, homogeneous time-resolved fluorescence (JAK1 reaction system). The note with it: ATP 2 μM, JAK1 protein 0.2 ng/μL; read-out: JAK 1 activity. Here is the method:
(§1) The activity measurement method of JAK kinase was to use homogeneous time-resolved fluorescence technique. The reaction was performed in 384 shallow well plates with a total reaction volume of 10 μL. The mixture of kinase protein, compound, ATP and substrate was carried out in a reaction buffer of 50 mM Hepes (pH7.0), NaN3 0.02%, BSA 0.01%, 0.1 mM Orthocanadate, 5 mM MgCl2, and 1 mM DTT. After reacting for 1 hour, an antibody capable of recognizing substrate phosphorylation, dye XL-615 and detection buffer (Cisbio) containing EDTA were added to the system. The reaction signal of kinase was detected by PE company's porous plate detector. The parameter settings were excitation light at 320 nm, emission light at 615 nm and 665 nm. The activity of JAK is indirectly reflected by the signal ratio of 665 nm and 615 nm. In the reaction, the background well without enzyme and the total enzyme activity well without compound were set.
(§2) The IC50 value of the compound inhibiting protein was obtained by the formula: Y=100/(1+10^((Log IC50−X)*HillSlope)). In JAK1 reaction system, the concentration of ATP was 2 μM, and the concentration of JAK1 protein was 0.2 ng/μL.

For a further assay, the target named is JAK2 (Homo sapiens, UniProt O60674). In words: JAK kinase activity, homogeneous time-resolved fluorescence (JAK2 reaction system). The note with it: ATP 2 μM, JAK2 protein 0.01 ng/μL. The protocol: as §1, §2
In JAK2 reaction system, the concentration of ATP was 2 μM, and the concentration of JAK2 protein was 0.01 ng/μL.

Another assay deals with T1, JAK3 (Homo sapiens, UniProt P52333).
T1 sequence (P52333 1-1124): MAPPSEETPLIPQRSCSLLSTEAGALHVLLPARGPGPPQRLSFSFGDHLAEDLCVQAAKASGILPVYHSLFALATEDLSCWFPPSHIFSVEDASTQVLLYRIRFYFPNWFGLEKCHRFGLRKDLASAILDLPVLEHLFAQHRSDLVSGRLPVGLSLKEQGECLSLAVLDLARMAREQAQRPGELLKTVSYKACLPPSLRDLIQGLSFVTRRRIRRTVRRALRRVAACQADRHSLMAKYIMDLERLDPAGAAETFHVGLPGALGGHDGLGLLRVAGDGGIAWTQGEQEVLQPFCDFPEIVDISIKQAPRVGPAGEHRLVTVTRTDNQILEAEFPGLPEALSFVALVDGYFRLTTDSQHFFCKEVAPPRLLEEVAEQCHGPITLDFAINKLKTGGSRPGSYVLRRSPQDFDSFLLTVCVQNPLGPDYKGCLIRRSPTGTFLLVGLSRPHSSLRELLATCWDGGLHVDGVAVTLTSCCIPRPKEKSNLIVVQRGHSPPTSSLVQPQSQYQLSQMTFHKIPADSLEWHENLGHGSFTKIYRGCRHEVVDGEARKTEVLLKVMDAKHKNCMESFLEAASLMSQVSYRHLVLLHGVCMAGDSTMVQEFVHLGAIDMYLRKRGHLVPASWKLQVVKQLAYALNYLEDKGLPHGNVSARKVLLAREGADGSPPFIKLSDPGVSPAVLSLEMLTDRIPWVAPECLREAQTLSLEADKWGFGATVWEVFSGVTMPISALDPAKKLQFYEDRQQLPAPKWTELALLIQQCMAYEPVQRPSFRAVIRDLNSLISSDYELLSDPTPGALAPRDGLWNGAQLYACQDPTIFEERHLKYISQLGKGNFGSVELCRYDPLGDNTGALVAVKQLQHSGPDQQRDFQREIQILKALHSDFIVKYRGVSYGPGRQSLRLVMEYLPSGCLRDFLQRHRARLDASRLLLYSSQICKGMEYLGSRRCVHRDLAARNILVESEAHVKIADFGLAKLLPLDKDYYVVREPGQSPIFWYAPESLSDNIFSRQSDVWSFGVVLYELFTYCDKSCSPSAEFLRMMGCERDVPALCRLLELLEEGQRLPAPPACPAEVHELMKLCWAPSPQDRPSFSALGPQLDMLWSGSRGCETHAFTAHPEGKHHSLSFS
In words: JAK kinase activity, homogeneous time-resolved fluorescence (JAK3 reaction system). The note with it: ATP 2 μM, JAK3 protein 0.04 ng/μL; read-out: JAK 3 activity. Here is the method: as §1, with “The reaction was performed in 384 shallow well plates with a total reaction volume of 10 μL.” left out, “After reacting for 1 hour, an antibody capable of recognizing substrate phosphorylation, dye XL-615 and detection buffer (Cisbio) containing EDTA were added to the system.” left out, “set. […]” for “set.”
In JAK3 reaction system, the concentration of ATP was 2 μM, and the concentration of JAK3 protein was 0.04 ng/μL.

A further assay deals with TYK2 (Homo sapiens, UniProt P29597). Nature of the assay: JAK kinase activity, homogeneous time-resolved fluorescence (TYK2 reaction system). The settings on record: ATP 2 μM, TYK2 protein 0.2 ng/μL; read-out: TYK 2 activity. The protocol:
as §1, §2
In TYK2 reaction system, the concentration of ATP was 2 μM, and the concentration of TYK2 protein was 0.2 ng/μL.

JAK1, sequence (P23458 whole entry): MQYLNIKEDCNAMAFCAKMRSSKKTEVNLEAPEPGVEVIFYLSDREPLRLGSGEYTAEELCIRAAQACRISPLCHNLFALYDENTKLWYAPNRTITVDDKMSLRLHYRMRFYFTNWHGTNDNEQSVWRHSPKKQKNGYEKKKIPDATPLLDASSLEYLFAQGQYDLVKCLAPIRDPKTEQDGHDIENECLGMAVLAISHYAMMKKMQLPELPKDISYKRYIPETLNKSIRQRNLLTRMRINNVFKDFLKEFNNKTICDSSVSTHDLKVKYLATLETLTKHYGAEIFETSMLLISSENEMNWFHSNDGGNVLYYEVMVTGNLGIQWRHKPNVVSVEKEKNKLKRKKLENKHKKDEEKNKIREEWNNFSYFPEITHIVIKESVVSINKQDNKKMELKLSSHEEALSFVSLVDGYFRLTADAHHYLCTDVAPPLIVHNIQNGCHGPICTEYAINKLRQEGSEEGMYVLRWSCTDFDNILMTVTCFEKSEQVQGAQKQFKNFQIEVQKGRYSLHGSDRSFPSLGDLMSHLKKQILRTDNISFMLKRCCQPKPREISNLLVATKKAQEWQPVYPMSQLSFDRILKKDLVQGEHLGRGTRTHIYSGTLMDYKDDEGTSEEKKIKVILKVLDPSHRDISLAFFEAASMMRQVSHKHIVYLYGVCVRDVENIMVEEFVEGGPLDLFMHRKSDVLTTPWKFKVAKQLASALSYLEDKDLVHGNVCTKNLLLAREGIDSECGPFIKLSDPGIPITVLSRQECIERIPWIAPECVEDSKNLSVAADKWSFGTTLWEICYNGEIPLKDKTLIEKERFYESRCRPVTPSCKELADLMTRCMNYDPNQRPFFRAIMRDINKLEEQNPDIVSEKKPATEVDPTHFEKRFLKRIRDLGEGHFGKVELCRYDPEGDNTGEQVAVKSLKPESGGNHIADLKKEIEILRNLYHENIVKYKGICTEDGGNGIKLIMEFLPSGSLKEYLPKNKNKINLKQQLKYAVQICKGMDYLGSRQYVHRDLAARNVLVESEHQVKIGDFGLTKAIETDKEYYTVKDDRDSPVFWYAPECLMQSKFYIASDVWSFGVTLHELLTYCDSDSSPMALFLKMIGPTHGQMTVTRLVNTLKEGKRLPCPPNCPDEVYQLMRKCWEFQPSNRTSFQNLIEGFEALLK
TYK2, sequence (P29597 whole entry): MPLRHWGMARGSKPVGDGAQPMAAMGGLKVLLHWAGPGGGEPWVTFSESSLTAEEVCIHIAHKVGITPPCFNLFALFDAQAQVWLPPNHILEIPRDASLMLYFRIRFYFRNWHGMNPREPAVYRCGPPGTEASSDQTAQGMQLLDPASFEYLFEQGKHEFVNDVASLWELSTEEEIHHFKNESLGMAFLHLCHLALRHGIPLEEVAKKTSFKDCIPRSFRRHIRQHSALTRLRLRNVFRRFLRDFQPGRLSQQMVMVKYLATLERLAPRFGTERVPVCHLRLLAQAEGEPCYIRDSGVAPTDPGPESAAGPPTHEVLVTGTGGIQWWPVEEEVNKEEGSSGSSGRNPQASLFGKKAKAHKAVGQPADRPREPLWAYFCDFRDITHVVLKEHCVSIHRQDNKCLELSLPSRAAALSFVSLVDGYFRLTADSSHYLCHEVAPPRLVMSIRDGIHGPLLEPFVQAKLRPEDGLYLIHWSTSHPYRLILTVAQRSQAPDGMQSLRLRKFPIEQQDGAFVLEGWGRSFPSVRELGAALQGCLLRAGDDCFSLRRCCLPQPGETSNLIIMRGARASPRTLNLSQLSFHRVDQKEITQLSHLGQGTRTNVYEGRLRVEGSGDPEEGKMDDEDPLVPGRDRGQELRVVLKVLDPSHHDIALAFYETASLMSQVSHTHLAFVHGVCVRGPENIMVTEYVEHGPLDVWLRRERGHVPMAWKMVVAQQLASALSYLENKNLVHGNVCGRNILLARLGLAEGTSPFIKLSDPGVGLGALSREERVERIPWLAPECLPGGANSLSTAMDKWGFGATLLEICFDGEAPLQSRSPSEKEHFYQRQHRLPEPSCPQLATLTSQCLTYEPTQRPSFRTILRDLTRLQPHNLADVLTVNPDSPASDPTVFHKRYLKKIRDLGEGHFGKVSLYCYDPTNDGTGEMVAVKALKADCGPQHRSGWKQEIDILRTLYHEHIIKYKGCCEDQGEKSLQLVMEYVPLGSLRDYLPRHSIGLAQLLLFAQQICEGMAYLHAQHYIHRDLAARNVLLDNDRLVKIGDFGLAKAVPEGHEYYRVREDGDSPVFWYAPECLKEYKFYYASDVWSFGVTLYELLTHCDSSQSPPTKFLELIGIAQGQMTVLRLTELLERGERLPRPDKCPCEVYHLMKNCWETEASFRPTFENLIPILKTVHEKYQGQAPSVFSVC
JAK2, sequence (O60674 whole entry): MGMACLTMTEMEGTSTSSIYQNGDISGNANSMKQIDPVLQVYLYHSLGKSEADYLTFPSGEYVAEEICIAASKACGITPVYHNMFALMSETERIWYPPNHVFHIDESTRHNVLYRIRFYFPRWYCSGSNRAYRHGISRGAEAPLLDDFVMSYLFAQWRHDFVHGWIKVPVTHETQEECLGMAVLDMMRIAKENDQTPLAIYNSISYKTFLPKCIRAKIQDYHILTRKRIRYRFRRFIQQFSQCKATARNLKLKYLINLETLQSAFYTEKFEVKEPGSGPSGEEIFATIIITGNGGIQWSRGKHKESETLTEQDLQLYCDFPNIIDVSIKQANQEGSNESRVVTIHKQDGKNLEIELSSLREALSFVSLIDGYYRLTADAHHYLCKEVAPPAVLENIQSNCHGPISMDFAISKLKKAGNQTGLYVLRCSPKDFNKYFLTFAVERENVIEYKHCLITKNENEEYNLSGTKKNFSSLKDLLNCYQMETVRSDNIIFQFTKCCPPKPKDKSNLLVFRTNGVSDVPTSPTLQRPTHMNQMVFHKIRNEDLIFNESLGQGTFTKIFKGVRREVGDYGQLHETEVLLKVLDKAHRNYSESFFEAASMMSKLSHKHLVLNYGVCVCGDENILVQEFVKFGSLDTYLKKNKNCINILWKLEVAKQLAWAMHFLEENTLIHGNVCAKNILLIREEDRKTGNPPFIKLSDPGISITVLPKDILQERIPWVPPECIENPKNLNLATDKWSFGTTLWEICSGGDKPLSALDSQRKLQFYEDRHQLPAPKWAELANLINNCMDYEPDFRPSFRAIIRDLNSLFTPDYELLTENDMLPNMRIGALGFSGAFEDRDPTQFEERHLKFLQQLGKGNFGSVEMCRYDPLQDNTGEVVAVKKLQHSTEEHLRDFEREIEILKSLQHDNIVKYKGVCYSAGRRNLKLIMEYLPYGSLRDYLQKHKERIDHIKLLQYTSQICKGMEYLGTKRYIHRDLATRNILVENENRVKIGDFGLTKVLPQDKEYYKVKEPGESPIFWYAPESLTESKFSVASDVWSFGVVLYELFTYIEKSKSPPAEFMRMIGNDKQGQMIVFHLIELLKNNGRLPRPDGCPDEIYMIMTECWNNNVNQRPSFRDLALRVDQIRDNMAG

`COc1ccc2cc1COCCCCNC(=O)c1ccc(c(F)c1)-c1ccnc(n1)N2` [Example 15, 1^2-fluoro-4^4-methoxy-6-oxa-3,11-di-aza-2(4,2)-pyrimidina-1(1,4),4(1,3)-dibenzenacyclododecaphan-12-one]: the pIC50 at JAK1 was 6.00 to 7.00; on JAK2, 6.00 to 7.00; on JAK3 it was 7.00 to 7.96; at TYK2, 5.00 to 6.00.
On to `O=C1NCCCCOCc2cc(cc(N3CCOCC3)c2)Nc2ncc(Cl)c(n2)-c2ccc1cc2` [Example 16, 2^5-chloro-4^5-morpholin-6-oxa-3,11-diaza-2(4,2)-pyrimidina-1(1,4),4(1,3)-dibenzenacyclododecaphan-12-one], for which the pIC50 at JAK1 is 7.00 to 7.96; at JAK2 it was 7.00 to 7.96; on JAK3, 7.00 to 7.96; at TYK2, 5.00 to 6.00.
For `O=C1NCCCCOCc2cc(ccc2N2CCOCC2)Nc2ncc(Cl)c(n2)-c2ccc1cc2Cl` [Example 17, 1^2,2^5-dichloro-4^4-morpholin-6-oxa-3,11-diaza-2(4,2)-pyrimidina-1(1,4),4(1,3)-dibenzenacyclododecaphan-12-one], the pIC50 at JAK1 was 5.00 to 6.00; against JAK2, 6.00 to 7.00; on JAK3, 6.00 to 7.00; at TYK2, 5.00 to 6.00.
As for `O=C1NCCCCOCc2cccc(c2)Nc2ncc(Cl)c(n2)-c2ccc1cc2Cl` [Example 18, 1^2,2^5-dichloro-6-oxa-3,11-diaza-2(4,2)-pyrimidina-1(1,4),4(1,3)-dibenz-enacyclododecaphan-12-one], the pIC50 was 5.00 to 6.00 at JAK1, 6.00 to 7.00 on JAK2, 6.00 to 7.00 on JAK3 and less than 5.00 on TYK2.
In the case of `O=C1NCCCCOCc2cc(ccc2N2CCOCC2)Nc2nccc(n2)-c2ccc1cc2C(F)(F)F` [Example 19, 4^4-morpholin-1^2-trifluoromethyl-6-oxa-3,11-diaza-2(4,2)-pyrimi-dina-1(1,4),4(1,3)-dibenzenacyclododecaphan-12-one], the pIC50 was 5.00 to 6.00 at JAK1, 5.00 to 6.00 on JAK2, 5.00 to 6.00 on JAK3 and less than 5.00 on TYK2.
Regarding `O=C1NCCCCOCc2cc(ccc2Cl)Nc2nccc(n2)-c2ccc1cc2F` [Example 20, 4^4-chloro-1^2-fluoro-6-oxa-3,11-diaza-2(4,2)-pyrimidina-1(1,4),4(1,3)-di-benzenacyclododecaphan-12-one], the pIC50 at JAK1 was 6.00 to 7.00; against JAK2, 6.00 to 7.00; on JAK3, 7.00 to 7.96; on TYK2, 5.00 to 6.00.
In the case of `COc1cc2ccc1-c1ccnc(n1)Nc1ccc(N3CCOCC3)c(c1)COCCCCNC2=O` [Example 21, 1^2-methoxy-4^4-morpholin-6-oxa-3,11-diaza-2(4,2)-pyrimidina-1(1,4),4(1,3)-dibenzenacyclododecaphan-12-one], the pIC50 on JAK1 was 5.00 to 6.00; on JAK2 it was 6.00 to 7.00; at JAK3, 6.00 to 7.00; on TYK2, 5.00 to 6.00.
Regarding `O=C1NCCCCOCc2cc(ccc2N2CCOCC2)Nc2nccc(n2)-c2ccc1cc2OC(F)(F)F` [Example 22, 4^4-morpholin-1^2-trifluoromethoxy-6-oxa-3,11-diaza-2(4,2)-pyrimidina-1(1,4),4(1,3)-dibenzenacyclododeca-phan-12-one], the pIC50 on JAK1 was 5.00 to 6.00; at JAK2, 6.00 to 7.00; on JAK3 it was 6.00 to 7.00; on TYK2, 5.00 to 6.00.
Regarding `Cc1cc2ccc1-c1ccnc(n1)Nc1ccc(N3CCOCC3)c(c1)COCCCCNC2=O` [Example 23, 1^2-methyl-4^4-morpholin-6-oxa-3,11-diaza-2(4,2)-pyrimidina-1(1,4),4(1,3)-dibenzenacyclododecaphan-12-one], the pIC50 is 5.00 to 6.00 at JAK1, 6.00 to 7.00 on JAK2, 7.00 to 7.96 on JAK3 and 5.00 to 6.00 on TYK2.
For the molecule `O=C1NCCCCOCc2cc(ccc2N2CCOCC2)Nc2nccc(n2)-c2ccc1cc2[N+](=O)[O-]` [Example 24, 1^2-nitro-4^4-morpholin-6-oxa-3,11-di-aza-2(4,2)-pyrimidina-1(1,4),4(1,3)-dibenzenacyclododecaphan-12-one], the pIC50 at JAK1 is 5.00 to 6.00; against JAK2, 5.00 to 6.00; at JAK3, 6.00 to 7.00; on TYK2 it was 5.00 to 6.00.
Take `O=C1NCCCCOCc2cc(cc(N3CCOCC3)c2)Nc2ncc(Cl)c(n2)-c2ccc1cc2F` [Example 25]: the pIC50 on JAK1 is 5.00 to 6.00; against JAK2, 5.00 to 6.00; at JAK3, 6.00 to 7.00; on TYK2, 5.00 to 6.00.
With `COc1cnc2nc1-c1ccc(cc1)C(=O)NCCCCOCc1cc(ccc1N1CCOCC1)N2` [Example 26, 2^5-methoxy-4^4-morpholin-6-oxa-3,11-diaza-2(4,2)-pyrimidina-1(1,4),4(1,3)-dibenzenacyclododecaphan-12-one], the pIC50 on JAK1 is 6.00 to 7.00; against JAK2 it was 7.00 to 7.96; at JAK3, 7.00 to 7.96; at TYK2 it was 6.00 to 7.00.
For `O=C1NCCCCOCc2cc(cc(N3CCOCC3)c2)Nc2nccc(n2)-c2ccc1cc2F` [Example 27, 1^2-fluoro-4^5-morpholin-6-oxa-3,11-diaza-2(4,2)-pyrimidina-1(1,4),4(1,3)-dibenzenacyclododecaphan-12-one], the pIC50 at JAK1 was 6.00 to 7.00; on JAK2 it was 7.00 to 7.96; on JAK3 it was 7.00 to 7.96; on TYK2, 6.00 to 7.00.
`CN(C)c1ccc2cc1COCCCCNC(=O)c1ccc(c(F)c1)-c1ccnc(n1)N2` [Example 28, 1^2-fluoro-4^4-dimethylamino-6-oxa-3,11-diaza-2(4,2)-pyrimidina-1(1,4),4(1,3)-dibenzenacyclododecaphan-12-one]: the pIC50 at JAK1 is 6.00 to 7.00; on JAK2, 7.00 to 7.96; at JAK3 it was 7.00 to 7.96; at TYK2, 6.00 to 7.00.
On to `O=C1NCCCCOCc2cc(ccc2N2CCCCC2)Nc2nccc(n2)-c2ccc1cc2F` [Example 29, 1^2-fluoro-4^4-(piperidin-1-)-6-oxa-3,11-diaza-2(4,2)-pyrimidina-1(1,4),4(1,3)-dibenzenacyclododecaphan-12-one], for which the pIC50 is 6.00 to 7.00 at JAK1, 7.00 to 7.96 against JAK2, 7.00 to 7.96 at JAK3 and 5.00 to 6.00 at TYK2.
Consider `O=C1NCCCCOCc2cc(ccc2N2CCOCC2)Nc2nccc(n2)-c2ccc1cc2Cl` [Example 30, 1^2-chloro-4^4-morpholin-6-oxa-3,11-diaza-2(4,2)-pyrimidina-1(1,4),4(1,3)-dibenzenacyclododecaphan-12-one], for which the pIC50 was 6.00 to 7.00 at JAK1, 7.00 to 7.96 against JAK2, 7.00 to 7.96 at JAK3 and 6.00 to 7.00 at TYK2.

The values above are taken from patent US20230203059A1, “MACROCYCLIC JAK INHIBITOR AND USES THEREOF” (Biopolar Hongye (Guangdong) Pharmaceutical Co. Ltd., priority 2020, published 2023).
